Experiment [1] relates to HeLa cells. As to the kind of experiment: Luciferase transfection efficiency of triple complex in HeLa cells. The following applies: for luciferase activity for various peptides: DNA:peptide:DP liposomes 1:4:4 (w/w/w), compared to Tat and Sc-Tat control peptides, FIG. 9A. It is filed as cell-based. As for the experimental part: In order to test transfection efficiency, the TatC peptide was precomplexed with the pcDNA3-luciferase vector DNA in 50 ul OPTI-MEM medium and was incubated for 5 minutes at room temperature. The DP liposomes was prepared in a 50 ul OPTI-MEM medium and added to the preformed complex of the TatC peptide and pcDNA3-luciferase vector DNA. The ratio of each component in the triple complex of the TatC peptide/DNA/DP liposomes was adjusted to 3:1:5 respectively. The triple complex of TatC peptide/DNA/DP liposomes was incubated for 10 minutes at room temperature and used for transfection into cells. After 5 hr incubation, 300 ul/well of the OPTI-MEM medium containing 20% Fetal Bovine Serum (FBS) was added into each transfection well. Further incubation for 16 hours was carried out before measuring transfection efficiency in luciferase activity using a luciferase assay kit (Promega, USA). To check luciferase activity of the pcDNA3-luciferase vector DNA, the following procedure was adopted. Cells were washed with PBS buffer (without Mg^2+ or Ca^2+) and lysed in 100 μl/well of 1×CCLR solution (Cell culture Lysis Reagent, 25 mM Tris-phosphate [pH 7.8], 2 mM DTT, 2 mM 1,2-diaminocyclohexane-N,N,N′,N′-tetraacetic acid, 10% glycerol, 1% Triton X-100). Cell lysates was centrifuged at 12,000×g for 1 minute and 50 ul supernatant was carefully harvested without disturbing the cell pellet. The cell lysates then mixed with 20 μl Luciferase Assay reagent. Luciferase activity was tested using a luminometer (Berthold detection systems, Sirius, Germany). As a negative control, the DP liposomes alone. […]
To examine transfection efficiency in the presence or absence of serum, the TatC/DNA(pcDNA3-luc)/DP liposomes triple complex of the present invention was transfected into HeLa and K562 cells in a medium with or without 10% FBS (FIG. 13A and B). A complex of DNA and liposomes was used as a negative control.

In experiment [2] the test system is cells. As to the kind of experiment: Luciferase transfection efficiency of TatC peptide/DNA/cationic liposome triple complex (FIG. 1, FIG. 2). It is filed as cell-based. Here is the method: In order to test transfection efficiency, the TatC peptide was precomplexed with the pcDNA3-luciferase vector DNA in 50 ul OPTI-MEM medium and was incubated for 5 minutes at room temperature. The DP liposomes was prepared in a 50 ul OPTI-MEM medium and added to the preformed complex of the TatC peptide and pcDNA3-luciferase vector DNA. The ratio of each component in the triple complex of the TatC peptide/DNA/DP liposomes was adjusted to 3:1:5 respectively. The triple complex of TatC peptide/DNA/DP liposomes was incubated for 10 minutes at room temperature and used for transfection into cells. After 5 hr incubation, 300 ul/well of the OPTI-MEM medium containing 20% Fetal Bovine Serum (FBS) was added into each transfection well. Further incubation for 16 hours was carried out before measuring transfection efficiency in luciferase activity using a luciferase assay kit (Promega, USA). To check luciferase activity of the pcDNA3-luciferase vector DNA, the following procedure was adopted. Cells were washed with PBS buffer (without Mg^2+ or Ca^2+) and lysed in 100 μl/well of 1×CCLR solution (Cell culture Lysis Reagent, 25 mM Tris-phosphate [pH 7.8], 2 mM DTT, 2 mM 1,2-diaminocyclohexane-N,N,N′,N′-tetraacetic acid, 10% glycerol, 1% Triton X-100). Cell lysates was centrifuged at 12,000×g for 1 minute and 50 ul supernatant was carefully harvested without disturbing the cell pellet. The cell lysates then mixed with 20 μl Luciferase Assay reagent. Luciferase activity was tested using a luminometer (Berthold detection systems, Sirius, Germany). As a negative control, the DP liposomes alone.
The TatC peptide/DNA (pcDNA3-luciferase vector)/LFA liposome complex was prepared as described in Example 3.1. Transfection was carried out according to the manufacturer's recommended protocol (Life Technologies, USA), and was tested for luciferase activity.
To deteremine if enhanced transfection efficiency could be attained, a TatC Peptide/DNA/cationic liposomes triple complex were formed by mixing them in different order. […]

Experiment [3] deals with K562 cells. As to the kind of experiment: Luciferase transfection efficiency of triple complex in K562 cells. It is filed as cell-based. The following applies: TatC/DNA(pcDNA3-luc)/DP liposomes, FIG. 13B. Here is the method: In order to test transfection efficiency, the TatC peptide was precomplexed with the pcDNA3-luciferase vector DNA in 50 ul OPTI-MEM medium and was incubated for 5 minutes at room temperature. The DP liposomes was prepared in a 50 ul OPTI-MEM medium and added to the preformed complex of the TatC peptide and pcDNA3-luciferase vector DNA. The ratio of each component in the triple complex of the TatC peptide/DNA/DP liposomes was adjusted to 3:1:5 respectively. The triple complex of TatC peptide/DNA/DP liposomes was incubated for 10 minutes at room temperature and used for transfection into cells. After 5 hr incubation, 300 ul/well of the OPTI-MEM medium containing 20% Fetal Bovine Serum (FBS) was added into each transfection well. Further incubation for 16 hours was carried out before measuring transfection efficiency in luciferase activity using a luciferase assay kit (Promega, USA). To check luciferase activity of the pcDNA3-luciferase vector DNA, the following procedure was adopted. […]
In order to test transfection efficiency of the triple complex, TatC peptide and liposomes (DP or LFA) were mixed with plasmid DNA in various ratios. […] Luciferase activity was then measured as described in Example 3.1.
The TatC peptide shown in Example 2.1 was modified with RGD amino acid sequence at both N-and C-termini. […] Luciferase activity was measured for each transfected cells as described in Example 3.1. […]

Experiment [4] concerns 293, HT-29, HL-60, MCF-7, A549, NC1-H1299, WI-38VA13, HepG2 and Hep3B cells. Briefly: Luciferase transfection efficiency of triple complex in 9 different cell lines. The following applies: various ratios. It is filed as cell-based, human.
Experiment [5] concerns WRT7/P2 cells. Briefly: Cellular uptake of FITC-labeled oligonucleotide. It is filed as cell-based, rat. To be noted: TatC peptide/DNA/LFA triple complex compared to LFA liposomes alone; FIG. 8. As for the experimental part:
Next, transfection efficiency of nucleic acid by the triple complex was tested for oligonucleotides labeled with FITC at both ends. Oligonucleotides were complexed with the TatC peptide and LFA liposomes and were transfected to a rat monocytic cell line, WRT7/P2. The transfected cells were then assayed for FITC-fluorescence. We observed that cellular uptake of the oligonucleotides with the TatC peptide/DNA/LFA triple complex was much higher than delivered with LFA liposomes alone (FIG. 8). […] Therefore, the TatC peptide delivery system of the present invention may be effectively utilized for efficient delivery into cells regardless of the types of DNA to be delivered.

In experiment [6] the test system is kidney of SD rats. Briefly: In vivo delivery of LacZ plasmid by retrograde ureteral injection, X-gal staining of kidney sections. Further details: species or system rat. To be noted: TatC:DNA:DP=4:1:4, retrograde injection, male SD rats, compared to DNA/liposome or DNA alone, FIG. 16. Here is the method:
To test the transfection efficiency of the peptide/DNA/liposomes triple complex in vivo, the following experiment was performed. Male Sprague-Dawley (SD) rats (Hamamatsu, Shizuoka, Japan) were supplied from SLC and were housed in groups of 6 with free access to standard chow and water. Male SD rats, weighing 200-250 g, were used in these experiments. After anesthesia by the intraperitoneal injection of pentobarbital (5 mg/100 g body weight), the left kidney was exposed via an abdominal midline incision. Rats were subjected to ureteral ligation proximal to the left kidney, which was followed by retrograde injection of the triple complex (TatC: DNA: DP=4:1:4) using a 24 gauge catheter syringe. Kidneys were harvested 24 hours after injection of the triple complex. and embedded in a Tissue-Tek™ OCT compound (Miles, Elkhart, Ill.) under liquid nitrogen. Tissue blocks of the perfusion-fixed kidney with 4% paraformaldehyde were cryosectioned to 10 μm thickness and mounted on Poly-Prep™ slides (Sigma, St. Louise, Mo.). After dissection of individual kidneys, kidney sections were fixed with 0.05% glutaraldehyde in PBS by perfusion for 15 min, and incubated in X-gal solution (1.5 mM potassium ferricyanide, 1.5 mM potassium ferrocyanide, and 1% X-gal) at 37° C. for 4 h. Tissue sections of 4 μm were counterstained with hematoxylin and examined using a microscope at 400 fold magnification.

Take RGDRKKRRQRRRPPQCRGD (RGD-TatC-RGD): in experiment [1], the “luciferase activity for various peptides” value was “markedly higher luciferase activity”.

For “RKKRRQRRRPPQ (Tat) [Tat peptide containing the NLS motif without any modification, control, reference compound]”, the “luciferase activity for various peptides” value in experiment [1] is on record as “comparably low”.

As to RKKRRQRRRPPQC (TatC), in experiment [2] (TatC peptide and DNA mixed first, then cationic liposome (LFA), compared with other mixing orders, FIG. 2), the “transfection efficiency according to mixing order” value is on record as “highest”. Besides, in experiment [2] (TatC peptide/DNA/LFA liposome complex compared to LFA liposomes only, FIG. 1), the “transfection activity (luciferase)” value is given as “higher transfection activity”. In addition, the luciferase activity result was “significantly enhances luciferase activity” in experiment [2] (triple complex TatC peptide/DNA/DP liposomes 3:1:5, compared to DP liposomes alone, FIG. 1); “remarkably higher luciferase activity” in experiment [4] (triple complex TatC peptide/DNA/DP, compared to DP liposomes alone, FIG. 6); “Analogous results” in experiment [4] (triple complex TatC peptide/DNA/LFA, compared to liposomes alone, FIG. 7). Moreover, the “luciferase activity with or without 10% FBS” value in experiment [3] is listed as “higher in medium containing serum”; in experiment [1] (TatC/DNA(pcDNA3-luc)/DP liposomes, HeLa, FIG. 13A), “higher in medium containing serum”. In experiment [1], the “luciferase activity for various peptides” value is “markedly higher luciferase activity”. Besides, the “cellular uptake of FITC-labeled oligonucleotides (FITC-fluorescence)” value in experiment [5] is recorded as “much higher”. Moreover, the “expression of the β-galactosidase gene in kidney” value in experiment [6] is reported as “observed only in the group treated with the complex composed of TatC/DNA/liposomes”.

With RKKRRQRRRPPQCRGDRGD (TatC-RGD-RGD), the “luciferase activity for various peptides” value in experiment [1] is on record as “markedly higher luciferase activity”.

Turning to “RRKRQRKRRPQP (Scrambled Tat(Sc-Tat)) [scrambled Tat peptide with random disturbance of the NLS motif, negative control, reference compound]”, in experiment [1], the “luciferase activity for various peptides” value was “comparably low”.

The values are drawn from patent publication US7297759B2, “Peptides for increasing transfection efficiency” (Welgene, Inc., priority 2002, dated 2007).
